These results are taken from patent US10259810B2, “N-sulfonylated pyrazolo[3,4-b]pyridin-6-carboxamides and method of use” (AbbVie S.à.r.l., priority 2015, dated 2019).

For assay [1], the target named is T1, ΔF508-CFTR (Homo sapiens, UniProt P13569, DEL508-508).
T1 construct: host or cells: CFBE41o-, doxycycline-inducible
Nature of the assay: CFTR cell surface levels using HRP-tagged ΔF508-CFTR expressing CFBE cells, in the presence of a co-corrector. The class given is cell-based. The settings on record: HRP-tagged ΔF508-CFTR CFBE cells, in the presence of 3 μM co-corrector; for EC50: read-out: EC50. The procedure, abridged: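 Chemiluminescent read-out of surface HRP (15 min, dark) after PBS washes. Activity is normalized as 100×(sample−DMSO)/(3 μM co-corrector alone−DMSO).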

The target of assay [2] is T1, ΔF508-CFTR. Nature of the assay: CFTR cell surface levels using HRP-tagged ΔF508-CFTR expressing CFBE cells, intrinsic corrector capacity. The class given is cell-based. More on the design: % Activation: concentration or dose not given beside the values. Particulars: HRP-tagged ΔF508-CFTR expressing CFBE41o- cells, compound alone (intrinsic corrector capacity), 20 hours at 33° C.; for EC50: read-out: EC50. In short, it runs like this: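 Surface ΔF508-CFTR was measured as HRP chemiluminescence from an extracellular-loop-4 tag, expressed as percent activity between DMSO and a […] corrector control.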

T1 sequence (P13569 with tags, fused parts or gaps DEL508-508): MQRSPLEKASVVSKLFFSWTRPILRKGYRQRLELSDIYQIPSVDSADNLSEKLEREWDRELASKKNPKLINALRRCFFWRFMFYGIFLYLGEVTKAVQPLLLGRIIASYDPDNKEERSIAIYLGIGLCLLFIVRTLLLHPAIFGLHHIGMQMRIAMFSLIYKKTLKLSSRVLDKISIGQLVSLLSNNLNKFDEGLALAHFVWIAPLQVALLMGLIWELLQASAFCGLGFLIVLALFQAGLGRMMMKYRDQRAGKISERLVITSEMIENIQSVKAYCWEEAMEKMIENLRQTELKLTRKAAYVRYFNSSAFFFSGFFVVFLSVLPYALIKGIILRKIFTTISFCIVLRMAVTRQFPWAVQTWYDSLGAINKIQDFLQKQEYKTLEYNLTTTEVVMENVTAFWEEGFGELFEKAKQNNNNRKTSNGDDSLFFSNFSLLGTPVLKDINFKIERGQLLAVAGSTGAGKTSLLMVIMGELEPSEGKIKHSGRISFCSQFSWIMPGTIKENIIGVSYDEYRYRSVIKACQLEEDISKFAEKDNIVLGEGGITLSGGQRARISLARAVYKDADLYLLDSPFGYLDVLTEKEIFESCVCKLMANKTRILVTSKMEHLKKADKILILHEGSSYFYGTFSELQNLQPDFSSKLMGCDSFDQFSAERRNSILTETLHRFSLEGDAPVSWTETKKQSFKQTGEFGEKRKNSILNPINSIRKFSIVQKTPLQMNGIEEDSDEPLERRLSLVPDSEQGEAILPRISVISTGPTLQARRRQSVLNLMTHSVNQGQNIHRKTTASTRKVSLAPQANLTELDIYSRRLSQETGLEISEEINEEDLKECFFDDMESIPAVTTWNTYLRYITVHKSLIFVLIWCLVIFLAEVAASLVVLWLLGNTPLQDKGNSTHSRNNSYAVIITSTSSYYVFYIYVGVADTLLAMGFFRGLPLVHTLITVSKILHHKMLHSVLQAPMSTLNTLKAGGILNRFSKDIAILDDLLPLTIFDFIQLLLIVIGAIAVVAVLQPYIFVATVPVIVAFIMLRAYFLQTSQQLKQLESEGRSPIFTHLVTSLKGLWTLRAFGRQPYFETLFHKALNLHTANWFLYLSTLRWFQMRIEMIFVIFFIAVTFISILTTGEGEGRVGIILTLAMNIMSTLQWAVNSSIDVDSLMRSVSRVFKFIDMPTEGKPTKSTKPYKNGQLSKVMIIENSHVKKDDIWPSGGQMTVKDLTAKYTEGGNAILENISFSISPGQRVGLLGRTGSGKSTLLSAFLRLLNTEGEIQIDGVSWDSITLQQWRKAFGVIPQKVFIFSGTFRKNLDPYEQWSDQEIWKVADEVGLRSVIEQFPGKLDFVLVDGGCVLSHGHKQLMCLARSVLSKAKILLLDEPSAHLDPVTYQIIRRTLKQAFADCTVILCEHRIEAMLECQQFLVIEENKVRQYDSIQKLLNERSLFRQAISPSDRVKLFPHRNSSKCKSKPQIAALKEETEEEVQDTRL

With `Cc1nn(C2CCCCC2)c2nc(C(=O)NS(C)(=O)=O)cc(-c3cnc(N(C)C)nc3)c12` [Compound 49, 1-cyclohexyl-4-[2-(dimethylamino)pyrimidin-5-yl]-N-(methanesulfonyl)-3-methyl-1H-pyrazolo[3,4-b]pyridine-6-carboxamide], the “% Activation” value is reported as 338% at ΔF508-CFTR [1] and 115.3% at ΔF508-CFTR [2]. Also, the figures for the EC50 on ΔF508-CFTR [1] and at ΔF508-CFTR [2] were 2000 nM and 2570 nM, respectively.
`CCS(=O)(=O)NC(=O)c1cc(-c2cnc(N(C)C)nc2)c2c(C)nn(C3CCCCC3)c2n1` [Compound 50, 1-cyclohexyl-4-[2-(dimethylamino)pyrimidin-5-yl]-N-(ethanesulfonyl)-3-methyl-1H-pyrazolo[3,4-b]pyridine-6-carboxamide]: on ΔF508-CFTR [1], the “% Activation” value was found to be 300% and the 50% effective concentration (EC50) amounted to 1080 nM. Moreover, on ΔF508-CFTR [2], the “% Activation” value is reported as 109.8% and the EC50 came to 1680 nM.
With `CC(C)c1nn(C2CCCCC2)c2nc(C(=O)NS(C)(=O)=O)cc(-c3ccc(N(C)C4CCOCC4)nc3)c12` [Compound 51, 1-cyclohexyl-N-(methanesulfonyl)-4-{6-[methyl(oxan-4-yl)amino]pyridin-3-yl}-3-(propan-2-yl)-1H-pyrazolo[3,4-b]pyridine-6-carboxamide], at ΔF508-CFTR [1], the “% Activation” value amounted to 420.67% and the EC50 came out at 312 nM. At ΔF508-CFTR [2], the “% Activation” value worked out at 172.4% and the EC50 worked out at 457 nM.
Consider `CCS(=O)(=O)NC(=O)c1cc(-c2cnc(N(C)C)nc2)c2c(C3CN(C(=O)OC)C3)nn(C3CCCCC3)c2n1` [Compound 52, methyl 3-{1-cyclohexyl-4-[2-(dimethylamino)pyrimidin-5-yl]-6-[(ethanesulfonyl)carbamoyl]-1H-pyrazolo[3,4-b]pyridin-3-yl}azetidine-1-carboxylate], for which, at ΔF508-CFTR [1], the “% Activation” value was 257.85% and the EC50 came to 992 nM. Also, at ΔF508-CFTR [2], the “% Activation” value was 75.755% and the half-maximal effective concentration (EC50) was 1150 nM.
For `CC(C)c1nn(-c2cccc(N(C)C)c2)c2nc(C(=O)NS(C)(=O)=O)cc(-c3ccc(N4CCOCC4)nc3)c12` [Compound 53, 1-[3-(dimethylamino)phenyl]-N-(methanesulfonyl)-4-[6-(morpholin-4-yl)pyridin-3-yl]-3-(propan-2-yl)-1H-pyrazolo[3,4-b]pyridine-6-carboxamide], in that order: 572.78%, 647 nM, 376.8% and 671 nM.
For `CCS(=O)(=O)NC(=O)c1cc(-c2ccc(N3CCOCC3)nc2)c2c(C(C)C)nn(-c3cccc(N(C)C)c3)c2n1` [Compound 54, 1-[3-(dimethylamino)phenyl]-N-(ethanesulfonyl)-4-[6-(morpholin-4-yl)pyridin-3-yl]-3-(propan-2-yl)-1H-pyrazolo[3,4-b]pyridine-6-carboxamide], in that order: 593.12%, 464 nM, 386.92% and 780 nM.
Taken in the same sequence, the figures for `CC(C)c1nn(C2CCCC2)c2nc(C(=O)NS(C)(=O)=O)cc(-c3ccc(N(C)C)nc3)c12` [Compound 55, 1-cyclopentyl-4-[6-(dimethylamino)pyridin-3-yl]-N-(methanesulfonyl)-3-(propan-2-yl)-1H-pyrazolo[3,4-b]pyridine-6-carboxamide] were 341.65%, 1050 nM, 126.75% and 1220 nM.
Turning to `CCS(=O)(=O)NC(=O)c1cc(-c2ccc(N(C)C)nc2)c2c(C(C)C)nn(C3CCCC3)c2n1` [Compound 56, 1-cyclopentyl-4-[6-(dimethylamino)pyridin-3-yl]-N-(ethanesulfonyl)-3-(propan-2-yl)-1H-pyrazolo[3,4-b]pyridine-6-carboxamide], at ΔF508-CFTR [1], the “% Activation” value is given as 336.75% and the half-maximal effective concentration (EC50) was 838 nM. For the same compound, at ΔF508-CFTR [2], the “% Activation” value was determined as 122.1% and the 50% effective concentration (EC50) turned out to be 1180 nM.
Consider `Cc1nn(-c2cccc(C(F)(F)F)c2)c2nc(C(=O)NS(C)(=O)=O)cc(-c3ccc(N4CCOCC4)nc3)c12` [Compound 57, N-(methanesulfonyl)-3-methyl-4-[6-(morpholin-4-yl)pyridin-3-yl]-1-[3-(trifluoromethyl)phenyl]-1H-pyrazolo[3,4-b]pyridine-6-carboxamide], for which the results for the “% Activation” value at ΔF508-CFTR [1] and on ΔF508-CFTR [2] were 440% and 219.65%, respectively. For the same compound, the EC50 amounted to 657 nM at ΔF508-CFTR [1] and 1020 nM at ΔF508-CFTR [2].
`CCS(=O)(=O)NC(=O)c1cc(-c2ccc(N3CCOCC3)nc2)c2c(C)nn(-c3cccc(C(F)(F)F)c3)c2n1` [Compound 58, N-(ethanesulfonyl)-3-methyl-4-[6-(morpholin-4-yl)pyridin-3-yl]-1-[3-(trifluoromethyl)phenyl]-1H-pyrazolo[3,4-b]pyridine-6-carboxamide]: at ΔF508-CFTR [1], the “% Activation” value was 352.5% and the EC50 came to 422 nM. Further, at ΔF508-CFTR [2], the “% Activation” value was 196.2% and the EC50 stood at 756 nM.
On to `CC(C)c1nn(-c2cccc(N(C)C)c2)c2nc(C(=O)NS(C)(=O)=O)cc(-c3cnc(N4CCOCC4)nc3)c12` [Compound 59, 1-[3-(dimethylamino)phenyl]-N-(methanesulfonyl)-4-[2-(morpholin-4-yl)pyrimidin-5-yl]-3-(propan-2-yl)-1H-pyrazolo[3,4-b]pyridine-6-carboxamide], for which, at ΔF508-CFTR [1], the “% Activation” value was 534.8% and the concentration for a half-maximal effect (EC50) turned out to be 482 nM. At ΔF508-CFTR [2], the “% Activation” value was determined as 317.3% and the EC50 came to 777 nM.
Turning to `Cc1nn(-c2ccc(F)cc2F)c2nc(C(=O)NS(C)(=O)=O)cc(-c3ccc(N4CCOCC4)nc3)c12` [Compound 60, 1-(2,4-difluorophenyl)-N-(methanesulfonyl)-3-methyl-4-[6-(morpholin-4-yl)pyridin-3-yl]-1H-pyrazolo[3,4-b]pyridine-6-carboxamide], on ΔF508-CFTR [1], the “% Activation” value amounted to 323.63% and the EC50 was 351 nM. For the same compound, at ΔF508-CFTR [2], the “% Activation” value is given as 160.43% and the EC50 came to 394 nM.
For `CCS(=O)(=O)NC(=O)c1cc(-c2ccc(N3CCOCC3)nc2)c2c(C)nn(-c3ccc(F)cc3F)c2n1` [Compound 61, 1-(2,4-difluorophenyl)-N-(ethanesulfonyl)-3-methyl-4-[6-(morpholin-4-yl)pyridin-3-yl]-1H-pyrazolo[3,4-b]pyridine-6-carboxamide], in that order: 415.3%, 506 nM, 184.35% and 1000 nM.
Taken in the same sequence, the figures for `CCS(=O)(=O)NC(=O)c1cc(-c2cnc(N3CCOCC3)nc2)c2c(C(C)C)nn(-c3cccc(N(C)C)c3)c2n1` [Compound 62, 1-[3-(dimethylamino)phenyl]-N-(ethanesulfonyl)-4-[2-(morpholin-4-yl)pyrimidin-5-yl]-3-(propan-2-yl)-1H-pyrazolo[3,4-b]pyridine-6-carboxamide] were 631.2%, 532 nM, 350.85% and 596 nM.
For `CC(C)c1nn(C2CCCCC2)c2nc(C(=O)NS(C)(=O)=O)cc(-c3ccc(N4CCC(F)(F)C4)nc3)c12` [Compound 64, 1-cyclohexyl-4-[6-(3,3-difluoropyrrolidin-1-yl)pyridin-3-yl]-N-(methanesulfonyl)-3-(propan-2-yl)-1H-pyrazolo[3,4-b]pyridine-6-carboxamide], in that order: 362.45%, 444 nM, 152.75% and 935 nM.
With `Cc1nn(-c2cccc(Cl)c2)c2nc(C(=O)NS(C)(=O)=O)cc(-c3ccc(N4CCOCC4)cc3)c12` [Compound 65, 1-(3-chlorophenyl)-N-(methanesulfonyl)-3-methyl-4-[4-(morpholin-4-yl)phenyl]-1H-pyrazolo[3,4-b]pyridine-6-carboxamide], on ΔF508-CFTR [1], the “% Activation” value amounted to 332.05% and the half-maximal effective concentration (EC50) came out at 464 nM. Also, at ΔF508-CFTR [2], the “% Activation” value turned out to be 162.33% and the EC50 worked out at 1530 nM.
For `CCS(=O)(=O)NC(=O)c1cc(-c2ccc(N3CCOCC3)cc2)c2c(C)nn(-c3cccc(Cl)c3)c2n1` [Compound 66, 1-(3-chlorophenyl)-N-(ethanesulfonyl)-3-methyl-4-[4-(morpholin-4-yl)phenyl]-1H-pyrazolo[3,4-b]pyridine-6-carboxamide], in that order: 332.85%, 6670 nM, 142.65% and 1860 nM.
Take `Cc1nn(-c2cccc(F)c2)c2nc(C(=O)NS(C)(=O)=O)cc(-c3ccc(N4CCOCC4)cc3)c12` [Compound 67, 1-(3-fluorophenyl)-N-(methanesulfonyl)-3-methyl-4-[4-(morpholin-4-yl)phenyl]-1H-pyrazolo[3,4-b]pyridine-6-carboxamide]: on ΔF508-CFTR [1], the “% Activation” value was 371.62% and the EC50 came out at 241 nM. Also, at ΔF508-CFTR [2], the “% Activation” value is on record as 181.96% and the EC50 came out at 362 nM.
Taken in the same sequence, the figures for `CCS(=O)(=O)NC(=O)c1cc(-c2ccc(N3CCOCC3)cc2)c2c(C)nn(-c3cccc(F)c3)c2n1` [Compound 68, N-(ethanesulfonyl)-1-(3-fluorophenyl)-3-methyl-4-[4-(morpholin-4-yl)phenyl]-1H-pyrazolo[3,4-b]pyridine-6-carboxamide] were 456.6%, 847 nM, 253.3% and 1080 nM.
